Source: patent US5652359A, “Oligonucleotides containing n-methyl thiolated bases having antiviral activity” (Epoch Pharmaceuticals, Inc., priority 1993, dated 1997)

Test system: HIV-1 (strain LAY-1)
Assay: Inhibition of HIV virus replication in human peripheral blood mononuclear (PBM) cells
Format: cell-based
Settings: Human immunodeficiency virus 1, PBMC, 144 h, supernatant RT activity six days after infection, read-out: IC50, 50% inhibition of replication of HIV
Excerpt: The group R' in Table 1 represents the cholesterol "tail" of Compound 7 which is connected to the 3'-terminal phosphate through a "linking group" derived from 4-hydroxy-2-hydroxymethylpyrrolidine and carbonyl connecting group. […] The IC50 numbers in Table 1 refer to the concentration of the compound which gives 50% inhibition of replication of HIV in a cell culture of human peripheral blood mononuclear (PBM) cells.
Cell Culture. Human PBM cells from healthy HIV-1 seronegative and hepatitis B virus seronegative donors were isolated by Ficoll-Hypaque discontinuous gradient centrifugation at 1,000× g for 30 minutes, washed twice in phosphate-buffered saline (pH 7.2; PBS), and pelleted at 300× g for 10 min. […]
Viruses. […] The virus was propagated in human PBM cells using RPMI 1640 medium, as described previously (McDougal, J. S., Cort, S. P., Kennedy, M. S. Cabridilla, C. D., Feorino, P. M., Francis, D. P., Hicks, D., Kalyanaramen, V. S. and Martin, L. S. (1985): Immunoassay for the detection and quantitation of infectious human retrovirus, lymphadenopathy-associated virus (LAV). J. Immun. Meth. 76:171-183) without PHA or fungizone and supplemented with 26 units/ml of recombinant interleukin-2 (Cetus Corporation, Emeryville, Calif.), 7 μg/ml DEAE-dextran (Pharmacia, Uppsala, Sweden), and 370 U/ml anti-human leukocyte (alpha) interferon (ICN, Lisle, Ill.). […]

## CO[C@@H]1[C@H](O)[C@@H](CO)O[C@H]1n1cnc2c(=S)n(C)cnc21 [Nucleoside, 9(2'-O-methyl-1-β-D-ribofuranosyl)-1-methyl-6-thiopurine]
  IC50: ~100 µM
